Results from article PMC10895678 (Journal of Medicinal Chemistry, 2024).
≈ marks a conversion by molar mass, not a printed value. Read-outs that look alike come from different tables or passages of the source.

What was measured:
M. bovis BCG = type: cell-based, Mycobacterium bovis BCG
[1] = HepG2 mitochondrial dysfunction (Glu/Gal cytotoxicity, MTT); type: cell-based; details: human, HepG2 cells, 24 h, MTT
Procedure: Compounds were solubilized to 30 mM in DMSO. The BGAz compounds were added to the HepG2 cell model in a 96-well microplate in half log dilutions from 100–0.0003 μM (final DMSO concentration 0.3%) using both glucose (DMEM consisting of 25 mM glucose) and galactose (DMEM consisting of 10 mM galactose) media. The compounds were incubated with the cell line for 24 h at 37 °C in a humidified CO2 tissue culture incubator, followed by cell viability staining with MTT (3-(4,5-dimethylthiazol-2-yl)-2.5-diphenyltetrazolium bromide) conversion to the Formazan product, determined by absorbance measurement. The cell viability IC50 was determined in HepG2 glucose and metabolism-modified HepG2 galactose, and the fold change difference between the Glu/Gal IC50 was determined. All experiments were performed in duplicate with the mitochondrial toxicity controls rotenone and Antimycin A and the cytotoxin control tamoxifen.

[2] = Caco-2 permeability and efflux; type: in vitro ADME; details: human, pH 7.4, 2 h; for efflux ratio at 2 h, 10 μM: Caco-2, pH 7.4, 10 μM; for Papp B→A at 2 h, 10 μM: Caco-2, read-out: Caco-2 B-A Paap
Procedure: Compounds were solubilized (10 mM in DMSO), and the CacoReady Kit from ReadyCell S.L. (Barcelona, Spain) was used to determine compound permeability. Differentiated and polarized Caco-2 cells (21-day system) were plated on a 96-transwell permeable system as a single monolayer to allow for automated high throughput screening of compounds, and 10 μM BGAz compound was added to the system in HBSS buffer (pH 7.4) and incubated for 2 h at 37 °C in a CO2 incubator. Lucifer yellow was used as a cell monolayer integrity marker. Drug transport was assessed in both directions [apical to basolateral (A-B) and basolateral to apical (B-A)] across the cell monolayer. […] The BGAz compound concentrations were quantified using a calibration curve following analysis by LC-MS/MS, and the apparent permeability coefficient (Papp) and efflux ratio of the compound across the monolayer were calculated. The efflux ratio is used as an indicator of active efflux. The permeability coefficient (Papp) was calculated from the following equation: [drawing 2] 2 where dQ/dt is the amount of compound in the basal (A-B) or apical (B-A) compartment as a function of time (nmol/s). C0 is the initial concentration in the donor (apical or basal) compartment (Mean of T = 0) (nmol/mL) and A is the area of the transwell (cm^2).
The efflux ratio was then calculated as [drawing 3] 3
All experiments were performed in triplicate, and the MDR1 efflux markers Digoxin, quinidine, and […] were used as positive controls.

BCG pTIC6-fbpB = type: cell-based, Mycobacterium bovis BCG
C. glutamicum pks13 = assay: MIC, resazurin assay, C. glutamicum pks13 deletion mutant; type: cell-based, Corynebacterium glutamicum; details: modified Gompertz function
M. tuberculosis 1192/015 = assay: microbe, parasite or virus in culture; type: cell-based; details: Mycobacterium tuberculosis, 1192/015, read-out: M. tb 1192/015 MIC99
BCG pVV16-mmpL3 = type: cell-based, Mycobacterium bovis BCG
C. glutamicum = assay: MIC, resazurin assay, C. glutamicum wild type; type: cell-based, Corynebacterium glutamicum; details: for C. glutamicum MIC: modified Gompertz function; for MIC50 C. glutamicum / MIC99 C. glutamicum: supplementary MIC data file
BCG pTIC6-fbpC = type: cell-based, Mycobacterium bovis BCG
M. tb H37Ra::pTYOK = type: cell-based, Mycobacterium tuberculosis; details: autoluminescent strain, >50% RLU inhibition on day 3
M. smegmatis = assay: MIC determination, resazurin end point assay, M. smegmatis; type: cell-based, Mycobacterium smegmatis; details: Mycolicibacterium smegmatis; for MIC50: read-out: MIC50 smegmatis
BCG = type: cell-based, Mycobacterium bovis BCG
[3] = galactose medium, read-out: HepG2 Cytotoxicity IC50, Gal
[4] = glucose medium, read-out: HepG2 Cytotoxicity IC50, Glu
[5] = resazurin end point assay, modified Gompertz function, three biological replicates, read-out: M. smeg. MIC99
[6] = supplementary MIC data file, read-out: MIC99 smegmatis

With `Brc1cc(Br)cc(C2CC(CN3CCCC3)N2Cc2ccccc2Br)c1` (centres unmarked) [BGAz-004] the “log2FoldChange, gene BCG_0001” value (M. bovis BCG) was -0.1191, the “log2FoldChange, gene BCG_0002” value (M. bovis BCG) was -0.5569 and the “log2FoldChange, gene BCG_0003” value (M. bovis BCG) was -0.5971. The “log2FoldChange, gene BCG_0004” value (M. bovis BCG) was -0.2384, the “log2FoldChange, gene BCG_0005” value (M. bovis BCG) was 0.5266 and the IC50 at 24 h [1, 3] was greater than 100 µM. The IC50 at 24 h [1, 4] was greater than 100 µM, the efflux ratio at 2 h, 10 μM [2] was 1.4 and the Papp B→A at 2 h, 10 μM [2] was 0.5 ×10⁻⁶ cm/s. For the same molecule, the BCG pTIC6-fbpB MIC (BCG pTIC6-fbpB) was 28 µM, the “increase in MIC upon overexpression of FbpB” value (BCG pTIC6-fbpB) was “two-fold increase” and the “C. glutamicum pks13 MIC” value (C. glutamicum pks13) was 10. For the same molecule, the MIC99 (M. tuberculosis 1192/015) was 15.4 µM (≈ 8.36 µg/mL), the BCG pVV16-mmpL3 MIC (BCG pVV16-mmpL3) was 40 µM and the C. glutamicum MIC (C. glutamicum) was 20 µM. For the same molecule, the MIC50 C. glutamicum (C. glutamicum) was 12 µM (≈ 6.52 µg/mL), the MIC99 C. glutamicum (C. glutamicum) was 12 µM (≈ 6.52 µg/mL) and the BCG pTIC6-fbpC MIC (BCG pTIC6-fbpC) was 34 µM. The “increase in MIC upon overexpression of FbpC” value (BCG pTIC6-fbpC) was “two-fold increase”, the “M. tb H37Ra::pTY OK MIClux50” value (M. tb H37Ra::pTYOK) was 7.03 μM and the MIC99 (M. smegmatis; [5]) was 14 µM (≈ 7.6 µg/mL). The MIC50 (M. smegmatis; supplementary MIC data file) was 6 µM (≈ 3.26 µg/mL), the MIC99 (M. smegmatis; [6]) was 14 µM (≈ 7.6 µg/mL) and the “TMM and TDM in cell envelope lipids” value (BCG; 0.5 × MIC) was “significant reduction”.
In the case of `CNCC1CC(c2ccc(OC(F)(F)F)cc2)N1Cc1ccccc1OC(F)(F)F` (centres unmarked) [BGAz-005], the “log2FoldChange, gene BCG_0001” value (M. bovis BCG) is reported as -0.2829, the “log2FoldChange, gene BCG_0002” value (M. bovis BCG) is reported as -0.6164 and the “log2FoldChange, gene BCG_0003” value (M. bovis BCG) is reported as -0.7815. For the same molecule, the “log2FoldChange, gene BCG_0004” value (M. bovis BCG) was -0.2846, the “log2FoldChange, gene BCG_0005” value (M. bovis BCG) was 0.5809 and the induced genes (M. bovis BCG; 8 h exposure, 1 × MIC) was 160. It also gave a repressed genes (M. bovis BCG; 8 h exposure, 1 × MIC) of 126, an IC50 at 24 h [1, 3] of 23 µM and an IC50 at 24 h [1, 4] of 21 µM. It also gave an efflux ratio at 2 h, 10 μM [2] of less than 1, a Papp B→A at 2 h, 10 μM [2] of 1.4 ×10⁻⁶ cm/s and a BCG pTIC6-fbpB MIC (BCG pTIC6-fbpB) of 50 µM. The “increase in MIC upon overexpression of FbpB” value (BCG pTIC6-fbpB) was “two-fold increase”, the “C. glutamicum pks13 MIC” value (C. glutamicum pks13) was 10 and the MIC99 (M. tuberculosis 1192/015) was 23.2 µM (≈ 10.1 µg/mL). For the same molecule, the C. glutamicum MIC (C. glutamicum) was 12 µM, the BCG pTIC6-fbpC MIC (BCG pTIC6-fbpC) was 50 µM and the “increase in MIC upon overexpression of FbpC” value (BCG pTIC6-fbpC) was “two-fold increase”. For the same molecule, the “M. tb H37Ra::pTY OK MIClux50” value (M. tb H37Ra::pTYOK) was 4.5 μM, the MIC99 (M. smegmatis; [5]) was 24 µM (≈ 10.4 µg/mL) and the MIC50 (M. smegmatis; supplementary MIC data file) was 9 µM (≈ 3.91 µg/mL). The MIC99 (M. smegmatis; [6]) was 24 µM (≈ 10.4 µg/mL), the “TMM and TDM in cell envelope lipids” value (BCG; 0.5 × MIC) was “significant reduction” and the “TMM and TDM in cell envelope lipids” value (BCG; concentrations beyond the MIC) was “complete loss”.
For `FC(F)(F)Oc1ccc(C2CC(CN3CCCC3)N2Cc2ccccc2OC(F)(F)F)cc1` (centres unmarked) [BGAz-002], the IC50 at 24 h [1, 3] was 65 µM, the IC50 at 24 h [1, 4] was 38 µM and the efflux ratio at 2 h, 10 μM [2] was 1.2. The Papp B→A at 2 h, 10 μM [2] was 2.8 ×10⁻⁶ cm/s, the “C. glutamicum pks13 MIC” value (C. glutamicum pks13) was 50 and the MIC99 (M. tuberculosis 1192/015) was 37.8 µM (≈ 17.9 µg/mL). For the same molecule, the BCG pVV16-mmpL3 MIC (BCG pVV16-mmpL3) was 25 µM, the C. glutamicum MIC (C. glutamicum) was 50 µM and the MIC50 C. glutamicum (C. glutamicum) was 43 µM (≈ 20.4 µg/mL). For the same molecule, the MIC99 C. glutamicum (C. glutamicum) was 49 µM (≈ 23.2 µg/mL), the “M. tb H37Ra::pTY OK MIClux50” value (M. tb H37Ra::pTYOK) was 9.2 μM and the MIC50 (M. smegmatis) was 49 µM (≈ 23.2 µg/mL). It also gave an MIC99 (M. smegmatis; read-out: MIC99 smegmatis) of 62 µM (≈ 29.4 µg/mL) and an MIC99 (M. smegmatis; [5]) of 32 µM (≈ 15.2 µg/mL).
